Data reported in patent US20170027940A1, “METHOD FOR TREATING CANCER” (STICHTING HET NEDERLANDS KANKER INSTITUUT, priority 2014, published 2017).

How the values were obtained:
ERK phosphorylation = assay: immunoblot of ERK phosphorylation; assay type: cell-based, human; settings: 5 μM; irrespective of MITF status
Protocol: For immunoblot analysis cells were treated on 10 cm dishes and snap-frozen after harvesting.
Cells were lysed in RIPA buffer and protein concentration measured with Bio-Rad protein assay. Immunoblots were performed according to standard protocols on 4 to 12% bis-Tris precast or 3-8% tris-acetate gels (NuPage). […] MAP kinase p44/42 thy202/Tyr204 (9106) and PDGFRbeta (31695) from Cell Signaling.

MITF = MITF expression during acquisition of resistance; assay type: cell-based, human; settings: short-term exposure, M229 and M238 MITF^acq^_^loss melanoma cell lines
Protocol: RNA was isolated using Trizol (Ambion), following standard protocol. Reverse transcription was performed using a kit from Invitrogen. Primers were designed using Primer Express software. QRT-PCR was performed with SYBR green master mix (Applied Biosystems) on a StepOnePlus Real-Time PCR system (Applied Biosystems, Warrington, UK). RNA levels were normalized against beta-actin or RPL13. Following primers were used: To study the dynamics of MITF downregulation as a function of the acquisition of a resistant phenotype, two independent MITF^acq^_^loss melanoma cell lines (M229 and […]; {Shi:2014fm}) were permanently exposed to 1 μM vemurafenib and monitored in time.

[1] = tested on: receptor tyrosine kinases (RTKs); assay: phospho-RTK array; assay type: cell-based, human; settings: 5 μM, two days
Protocol: Phospho-RTK assay was performed using the human Phospho-RTK Array from RD Systems (Minneapolis, USA). All steps were performed according to the manufactures protocol.
Encouraged by these findings, we compared the phosphorylation status of RTKs in one MITF^endo^_^lo and one MITF^endo^_^lo cell line.

[2] = tested on: MITF^endo^_^lo and MITF^endo^_^hi BRAF mutant melanoma cells; assay: cell proliferation assay and PARP cleavage; assay type: cell-based, human; settings: 5 μM, six days; MITF^endo^_^lo versus MITF^endo^_^hi cells
Protocol: FIG. 7: BRAFV600E mutant melanoma cells were plated in low density and treated with 5 μM PLX4270 for 6 days or left untreated and stained with crystal violet (left panel).
Cell line sources: Melanoma cell lines and HEK293T were cultured in DMEM/9% FBS (Sigma), 2 mM glutamine, 100 U/mL penicillin and 0.1 mg/mL streptomycin (all Gibco) under standard conditions. […] For dose response curve and colony formation assay cells were plated in a line-specific manner. Equal concentration of inhibitors was added one day after set up. For short-term viability assay (dose response curve) cells were plated in a 96-well format and drugs diluted with the HP D300 Digital Dispenser (Tecan). After three to five days incubation old medium was replaced by a dilution of CellTiter Blue reagent or CellTiter-Glo Luminescent Cell Viability Assay (Promega, Madison, Wiss.) in medium. Two hours later luminescence was measured by the infinite M200 microplate reader (Tecan, Giessen, Germany). Long-term viability assays were performed in 6-well or 12-well format. Inhibitors solutions were replaced every two to three days and plates stained with crystal violet after six to nine days of treatment (as indicated). For immunoblot analysis cells were treated on 10 cm dishes and snap-frozen after harvesting.
(§2) We then determined the spectrum of drug sensitivity among the MITF^endo^_^lo and MITF^endo^_^hi cells.

[3] = tested on: PLX4720-resistant MITF^acq^_^gain cells; assay: long-term viability assay, crystal violet staining; assay type: cell-based, human; settings: crystal violet after 6 days
Protocol: FIG. 5: Loss of MITF confers cross-resistance and increases invasiveness of resistant cells. Two PLX4270-resistant cells lines (Me1888 and SkMe128) and their treatment-naïve counterparts were treated with either ERKi, MEKi, the BRAFinhibitor Dabrafenib or a combination of the latter and stained with crystal violet after 6 days of treatment.
(§1) Cell line sources: Melanoma cell lines and HEK293T were cultured in DMEM/9% FBS (Sigma), 2 mM glutamine, 100 U/mL penicillin and 0.1 mg/mL streptomycin (all Gibco) under standard conditions. HEK293T cells were used for virus production for MITF-overexpression and shRNAs. Briefly HEK293T cells were transfected with the plasmid of interest and the helper plasmids (pMDLglpRRE, pHCMV-G, and pRSVrev). Viral supernatant was either fresh frozen or subsequently used for infection. Infected melanoma cells were positively selected with puromycin (Sigma). For dose response curve and colony formation assay cells were plated in a line-specific manner. Equal concentration of inhibitors was added one day after set up. For short-term viability assay (dose response curve) cells were plated in a 96-well format and drugs diluted with the HP D300 Digital Dispenser (Tecan). […] Two hours later luminescence was measured by the infinite M200 microplate reader (Tecan, Giessen, Germany). […]

[4] = tested on: MITF^endo^_^hi and MITF^endo^_^lo cell lines; assay: dose response curve (short-term viability assay); assay type: cell-based, human; settings: four MITF^endo^_^lo versus four MITF^endo^_^hi cell lines
Protocol: Cell line sources: Melanoma cell lines and HEK293T were cultured in DMEM/9% FBS (Sigma), 2 mM glutamine, 100 U/mL penicillin and 0.1 mg/mL streptomycin (all Gibco) under standard conditions. […] For dose response curve and colony formation assay cells were plated in a line-specific manner. Equal concentration of inhibitors was added one day after set up. For short-term viability assay (dose response curve) cells were plated in a 96-well format and drugs diluted with the HP D300 Digital Dispenser (Tecan). After three to five days incubation old medium was replaced by a dilution of CellTiter Blue reagent or CellTiter-Glo Luminescent Cell Viability Assay (Promega, Madison, Wiss.) in medium. Two hours later luminescence was measured by the infinite M200 microplate reader (Tecan, Giessen, Germany).
as §2

[5] = tested on: BRAFV600E mutant melanoma cell line (04.07); assay: sensitivity of screening cell line to ERK inhibitor; assay type: cell-based, human; settings: not all cells are killed even at high concentration
Protocol: The insertional mutagenesis screen was performed as described previously (Lu et al. Proc Natl Acad Sci U S A. (2009) 22;106(38):16339-44). Briefly, an intermediate sensitive melanoma cell line of low passage (Me104.07) was infected separately with the three different VBIM constructs (SD1-3). Two days after infection cells were exposed to 1 μM […] for three weeks till single colonies had formed. These were picked and separately cultured. For identification of insertions Splinkerette-PCR was used according to the published protocol and Sanger sequencing applied on amplified products.
To identify proteins conferring resistance to MAPK pathway inhibition by the recently available ERK inhibitor 5CH772984, we performed a lentiviral insertional mutagenesis screen using the VBIM system. Carrying a GFP-sequence and a strong CMV promoter, the virus integrates in the genome, resulting in an activation of downstream sequences that leads to overexpression of a FLAG-tagged protein. Due to […] excision the insertion can be excised by addition of 4-Hydroxytamoxifen (4-OHT). […] We infected this cell line with the three versions of the insertional mutagenesis vector (SD1-3). After three weeks of culturing in the presence of 1 μM SCH772984, we were able to pick drug-resistant clones and individually expanded them. […]

[6] = tested on: BRAF and BRAF/MEK inhibitor-resistant cells; settings: Morris et al. 2013; cited from earlier work
[7] = tested on: AXL-expressing PLX4270-resistant melanoma cells; assay: long-term viability assay, crystal violet staining; assay type: cell-based, human; settings: 0.3 μM AXL inhibitor, nine days, in two out of three resistant cell lines
Protocol: FIG. 12: AXL-expressing PLX4270-resistant melanoma cells were exposed to 0.3 μM AXL inhibitor for nine days and the remaining cells stained with crystal violet.
as §1
Next, we determined the expression pattern of these RTKs in acquired resistance, particularly in PLX4720-sensitive cells and their resistant counterparts. […]

## CCCS(=O)(=O)Nc1ccc(F)c(C(=O)c2c[nH]c3ncc(Cl)cc23)c1F [PLX4720]
ERK phosphorylation
  ERK phosphorylation: diminished
MITF
  MITF expression: sharply dropped
[1]; MITF^endo^_^hi cells
  activation of RTKs: only a minor activation
[1]; MITF^endo^_^lo cells
  activation of RTKs: further increased
[2]
  survival of cells upon exposure: clear survival benefit

## CC(C)(C)c1nc(-c2cccc(NS(=O)(=O)c3c(F)cccc3F)c2F)c(-c2ccnc(N)n2)s1 [Dabrafenib]
[3]
  sensitivity in long-term experiment: resistant

## CC(=O)Nc1cccc(-n2c(=O)n(C3CC3)c(=O)c3c(Nc4ccc(I)cc4F)n(C)c(=O)c(C)c32)c1 [MEKi]
[4]
  increase in resistance, as measured from the IC50 values: up to 1000 fold

## O=C(Nc1ccc2[nH]nc(-c3ccncc3)c2c1)[C@@H]1CCN(CC(=O)N2CCN(c3ccc(-c4ncccn4)cc3)CC2)C1 [SCH772984]
[5]
  sensitivity to the inhibitor: intermediately sensitive
[6]
  proliferation: effectively block proliferation

## Nc1nc(Nc2ccc3c(c2)CCC(N2CCCC2)CC3)nn1-c1cc2c(nn1)-c1ccccc1CCC2 (stereo not shown) [R428]
[7]
  proliferation/viability upon drug treatment: strong decrease in proliferation/viability
